In patent US9382568B2, “Determining the sensitivity of a cell to a drug” (RANDOX LABORATORIES LTD., priority 2008, dated 2016):

Key:
[1] = tested on: NCTC 13427 (lux+ cdd deficient E. coli MG 1655 expressing human dCK); test: Response of bioluminescent bacterial biosensor (growth OD600 and light output); type: cell-based
Description: (§1) Bacterial Strains, Plasmids and Growth Media. E. coli SØ5218 is a cdd-deficient strain expressing the human dCK cDNA on the IPTG-inducible pTrc99-A plasmid. E. coli MG1655 is a derivative of the wild-type E. coli K-12 with a requirement for pyrimidine in minimal medium, due to suboptimal expression of the orotate phosphoribosyltransferase gene coded for by pyrE. Both strains were made self-bioluminescent by transforming them with the broad-host vector pBBR1MCS-2 carrying the luxCDABE cassette from Photorhabdus luminescens as an EcoRI PCR fragment. Luria-Bertani (LB) medium was used for routine culturing of bacteria. The antibiotics ampicillin (to maintain pTrc-A) and kanamycin (to maintain pBBR1MCS-2) were added at 100 and 10 μg/ml, respectively. Growth inhibition experiments were performed in LB RPMI 1640 or in minimal salt medium (AB) plus 0.2% glucose, 0.2% vitamin-free casamino acids and supplemented with thiamine and leucine.
Construction of a cdd-deficient strain of E. coli MG 1655. A library of E. coli MG 1655 strains was constructed using transposition mutagenesis with P1 phage carrying the Tn10 transposon. Mutants carrying the transposon were selected for by plating on tetracycline (10 μg/ml) agar plates and cdd mutants were selected for by plating on to plates containing 10 μg/ml of the analogue 5-fluoro-2′ deoxycytidine which is toxic to E. coli expressing cdd. The phenotype of cdd mutants was confirmed by the absence of cytidine deaminase activity.
In order to measure Ara-C response in a nutrient rich intracellular environment, an alternative cdd-deficient strain of a bioluminescent E. coli MG1655 mutant was constructed using transposon mutagenesis, which was further transformed with pTrc99-A, to give IPTG inducible expression of dCK. […] One possible explanation for the light increase is that the DNA damage caused by Ara-CTP induces bioluminescence that could be used in DNA repair by a photo-reactivation process.
In order to increase the specificity of the proposed assay, direct effects of the active intracellular drug derivative, Ara-CTP, on the bacterial biosensor were monitored (FIG. 3A). […] To verify this, the assay was repeated with the addition of alkaline phosphatase at the start.

E. coli SØ5218 [2] = test: Growth of cdd-deficient E. coli mutant SØ5218 expressing human dCK; type: cell-based; conditions: rich growth medium (data not shown)
Description: Ara-C has no effect on Escherichia coli as it lacks dCK and deaminates Ara-C into Ara-uracil through the activity of deoxycytidine deaminase (cdd). Wang et al., Antimicrob. Agents. […] The Ara-C effect on growth was completely abolished when assayed in the absence of the dCK inducible […], IPTG, indicating human dCK expression in the bacteria leads to Ara-CTP incorporation into bacterial DNA.
as §1, with “leucine. […]” for “leucine.”

KG-1a cells [3] = test: Cell lysis assay with bioluminescent reporter bacteria, cell line; type: cell-based; conditions: KG-1a treated with 25 μM Ara-C, p=0.0001
Description: (§2) Cell lines, bone marrow and blood samples. The monocytic cell line KG-1a (DSMZ, Germany) was grown and maintained as a cell suspension in RPMI 1640 medium supplemented with 2 mM L-glutamine and 10% foetal calf serum. Mononuclear cell fractions were isolated from patient peripheral blood or bone marrow samples (n=8) using density gradient centrifugation (SG […]) followed by resuspension in RPMI 1640 medium prior to incubation with Ara-C. Cryopreserved bone marrow samples were thawed and re-suspended in RPMI 1640 medium prior to drug exposure.
(§3) Cell Lysis Assay. AML cell lines or patient derived samples were treated with 25 μM Ara-C for 90 min at 37° C. and 5% CO2, harvested, washed and resuspended in fresh RPMI 1640 medium. EDTA and saponin were added to final concentrations of 1.5 mM and 0.1%, respectively. Samples were then vortexed for 30 sec and cell debris were removed by centrifugation at 1027 g for 5 min. Samples from the lysate or supernatant were mixed with reporter bacteria, 1 mM of IPTG an 10 units of alkaline phosphatase. Bioluminescence and growth (OD600) of the bacteria were monitored in a multimode microplate reader. Sensitivity of AML cell lines or patient derived samples to Ara-C was also assayed using Cell Titer-Glo® Luminescent Cell Viability Assay kit (Promega). […]

KG-1a cells [4] = test: Cell Titer-Glo luminescent cell viability (three day cytotoxicity) assay, cell line; type: cell-based; conditions: 25 μM Ara-C, 72 hours
Description: as §2, §3

[5] = tested on: AML patient derived samples; test: Cell Titer-Glo luminescent cell viability (cytotox) assay, patient samples; type: cell-based, human; conditions: 25 μM Ara-C 72 hours
Description: as §2
(§4) Cell Lysis Assay. AML cell lines or patient derived samples were treated with 25 μM Ara-C for 90 min at 37° C. and 5% CO2, harvested, washed and resuspended in fresh RPMI 1640 medium. EDTA and saponin were added to final concentrations of 1.5 mM and 0.1%, respectively. Samples were then vortexed for 30 sec and cell debris were removed by centrifugation at 1027 g for 5 min. Samples from the lysate or supernatant were mixed with reporter bacteria, 1 mM of IPTG an 10 units of alkaline phosphatase. Bioluminescence and growth (OD600) of the bacteria were monitored in a multimode microplate reader. Sensitivity of AML cell lines or patient derived samples to Ara-C was also assayed using Cell Titer-Glo® Luminescent Cell Viability Assay kit (Promega). Samples were treated with 25 μM Ara-C for 72 hours at 37° C. and 5% CO2 before measuring intracellular levels of ATP according to manufacturer's instructions. Paired t-tests were used to analyse significant differences in bioluminescence output between control and treated assay samples.

[6] = tested on: AML patient derived samples; test: Cell lysis assay with bioluminescent reporter bacteria, patient samples; type: cell-based, human; conditions: for Bioluminescent Assay (sensitive): 25 μM Ara-C 90 min; for Treatment % difference in peak RLU a) L:LI / Treatment % difference in peak RLU b) L:LIP / Treatment % difference in peak RLU c) LI:LIP: drug treated minus control
Description: as §2, §4
A representation of light output during the bioluminescent assay for patients who are metabolic sensitive, metabolic resistant, metabolic partially resistant and uptake resistant is shown in FIG. 5.
Table 3 validates the application of the bioluminescent assay using relative percentage differences in peak light output from the various treatments to identify resistant and sensitive patients. Data shown in Table 3 is computed according to the equation {[RLU drug treated sample (LIP/LI)−RLU control (LIP/LI)]×100}, using c) as an example.

AML [7] = test: Clinical outcome of AML patients (Ara-C used in induction therapy); type: in vivo, human; set-up: key: NR = No remission; CR = Complete remission
Description: The assay was evaluated using a KG-1a cell line and AML samples from patients with known response to Ara-C used in induction therapy. FIG. 6 depicts the light output from the lysate of the Ara-C sensitive cell line KG-1a treated with high (25 μM) Ara-C concentrations. […] The three day cytotoxicity test confirmed that KG-1a cells are sensitive to Ara-C.
The cell lysis assay was applied to clinical samples of peripheral blood ([…]) from AML patients. These preliminary assays, conducted on 7 clinical samples, gave 100% correlation with clinical response to therapy.

E. coli SØ5218 [8] = conditions: upon expression of human dCK gene (IPTG), Wang et al. 1998; cited from earlier work
Escherichia coli = conditions: lacks dCK, deaminates Ara-C via cdd; cited from earlier work
AML [9] = test: Clinical outcome of AML patients (Ara-C used in induction therapy); type: in vivo, human; set-up: key: NR = No remission; CR = Complete remission; conditions: Table 2 patient 4, diagnosis M4
[10] = Table 2 patient 1, diagnosis M2
[11] = Table 2 patient 2, diagnosis M4
[12] = Table 2 patient 3, diagnosis M2
[13] = Table 2 patient 4, diagnosis M4
[14] = Table 2 patient 5, diagnosis M4
[15] = Table 2 patient 6, diagnosis M0
[16] = Table 2 patient 7, diagnosis M3

## Nc1ccn([C@@H]2O[C@H](CO)[C@@H](O)[C@@H]2O)c(=O)n1 [Ara-C]
[1]; drug-treated cultures, IPTG present, p=0.0001
  light output (bioluminescence, RLU) of reporter strain: significant increase in light output
[1]; in the presence of Ara-C, induced by IPTG, nutrient rich medium
  growth (OD600) of reporter strain: reduced growth
[1]; low concentrations of Ara-C, FIG. 2
  lowest concentration the bacterial biosensor responds to: 0.05 µM
E. coli SØ5218 [2]
  response of SØ5218: did not respond
KG-1a cells [3]
  light output from IPTG-induced lysate with BAP: significant increase in the light output
  light output from IPTG-induced lysate without BAP: significant increase in the light output
KG-1a cells [4]
  three day cytotoxicity test: sensitive
[5]; [10]
  Cytotox Assay (DLO): 84%
[5]; [11]
  Cytotox Assay (DLO): 99%
[5]; [12]
  Cytotox Assay (DLO): 79%
[5]; [13]
  Cytotox Assay (DLO): 99%
[5]; [14]
  Cytotox Assay (DLO): 62%
[5]; [15]
  Cytotox Assay (DLO): 5%
[5]; [16]
  Cytotox Assay (DLO): 91%
[6]; [10]
  Bioluminescent Assay (sensitive): No
[6]; [11]
  Bioluminescent Assay (sensitive): Yes
[6]; [12]
  Bioluminescent Assay (sensitive): No
[6]; [13]
  Bioluminescent Assay (sensitive): Yes
[6]; [14]
  Bioluminescent Assay (sensitive): No
[6]; [15]
  Bioluminescent Assay (sensitive): No
[6]; [16]
  Bioluminescent Assay (sensitive): No
[6]; Table 3 patient 1
  interaction of the drug with the patient sample (uptake and metabolism category): take up and metabolise the drug
  Treatment % difference in peak RLU a) L:LI: −10.25%
  Treatment % difference in peak RLU b) L:LIP: 19.20%
  Treatment % difference in peak RLU c) LI:LIP: 24.19%
[6]; Table 3 patient 2
  interaction of the drug with the patient sample (uptake and metabolism category): take up and metabolise the drug
  Treatment % difference in peak RLU a) L:LI: −4.00%
  Treatment % difference in peak RLU b) L:LIP: 62.40%
  Treatment % difference in peak RLU c) LI:LIP: 48.03%
[6]; Table 3 patient 3
  interaction of the drug with the patient sample (uptake and metabolism category): takes up but does not metabolise the drug
  Treatment % difference in peak RLU a) L:LI: −81.04%
  Treatment % difference in peak RLU b) L:LIP: −120.00%
  Treatment % difference in peak RLU c) LI:LIP: −4.51%
[6]; Table 3 patient 4, not clinically confirmed
  interaction of the drug with the patient sample (uptake and metabolism category): resistant to take up of the drug
[6]; Table 3 patient 4
  Treatment % difference in peak RLU a) L:LI: 2.28%
  Treatment % difference in peak RLU b) L:LIP: 3.28%
  Treatment % difference in peak RLU c) LI:LIP: 0.88%
[6]; Table 3 patient 5
  Treatment % difference in peak RLU a) L:LI: −61.46%
  Treatment % difference in peak RLU b) L:LIP: −98.39%
  Treatment % difference in peak RLU c) LI:LIP: −13.87%
[6]; Table 3 patient 6
  Treatment % difference in peak RLU a) L:LI: −13.59%
  Treatment % difference in peak RLU b) L:LIP: −7.03%
  Treatment % difference in peak RLU c) LI:LIP: 5.50%
[6]; Table 3 patient 7
  Treatment % difference in peak RLU a) L:LI: −16.37%
  Treatment % difference in peak RLU b) L:LIP: −16.37%
  Treatment % difference in peak RLU c) LI:LIP: 1.20%
AML [7]; [10]
  Clinical Outcome: NR
AML [7]; [11]
  Clinical Outcome: CR
AML [7]; [12]
  Clinical Outcome: NR
AML [7]; [14]
  Clinical Outcome: NR
AML [7]; [15]
  Clinical Outcome: NR
AML [7]; Table 2 patient 7, diagnosis M3 (Remission, death)
  Clinical Outcome: Remission
AML [7]; Table 3 patient 1
  Clinical Outcome: sensitive
AML [7]; Table 3 patient 2
  Clinical Outcome: sensitive
AML [7]; Table 3 patient 3
  Clinical Outcome: resistant
AML [7]; Table 3 patient 7
  Clinical Outcome: resistant
E. coli SØ5218 [8]
  relative growth of SØ5218: reduced relative growth
Escherichia coli
  effect on Escherichia coli: no effect
AML [9]
  Clinical Outcome: CR

## Nc1ccn([C@@H]2O[C@H](COP(=O)(O)OP(=O)(O)OP(=O)(O)O)[C@@H](O)[C@@H]2O)c(=O)n1 [Ara-CTP]
[1]; Ara-CTP added without alkaline phosphatase, FIG. 3A
  direct entry into reporter bacteria: does not directly enter reporter bacteria
[1]; alkaline phosphatase added at the start, FIG. 3B
  time after which increase in light output was evident: 3 to 5 h
[1]; no alkaline phosphatase added
  time of growth after which increase in light output was observed: at least 15 h
